Measurements: the supplement of paper PMC6045584
± gives the standard deviation of the averaged measurements.

Assays:
[1] = compound: C[C@H](CN(C)C)Oc1nc(Nc2cc3cccc(Cl)c3cn2)cnc1C#N; test: surviving fraction relative to DMSO-only wells; higher = less growth inhibition; conditions: exposure time: 5 days
In short: (§1)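 For each tumour cell line, log-phase cells were put into 384-well plates at 250–500 cells per well, then after 24 hours exposed continuously for five days to inhibitors at 0.5, 1, 5, 10, 50, 100, 500 and 1000 nM. Viability was assessed by CellTiter-Glo luminescence, with surviving fraction expressed relative to the median of DMSO-only wells. Lines were screened three times and retained only if replicate Pearson r exceeded 0.7 and median Z' exceeded 0.3.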

[2] = compound: COc1ccc(-c2cc3c(C)nc(N)nc3n([C@H]3CC[C@H](OCCO)CC3)c2=O)cn1; test: as above; conditions: exposure time: 5 days
In short: as §1

| Test System | surviving fraction ([1]; 0.5 nM) | surviving fraction ([1]; 1 nM) | surviving fraction ([1]; 5 nM) | surviving fraction ([1]; 10 nM) | surviving fraction ([1]; 50 nM) | surviving fraction ([1]; 100 nM) | surviving fraction ([1]; 500 nM) | surviving fraction ([1]; 1000 nM) | surviving fraction ([2]; 0.5 nM) | surviving fraction ([2]; 1 nM) | surviving fraction ([2]; 5 nM) | surviving fraction ([2]; 10 nM) | surviving fraction ([2]; 50 nM) | surviving fraction ([2]; 100 nM) | surviving fraction ([2]; 500 nM) | surviving fraction ([2]; 1000 nM) |
| --- | --- | --- | --- | --- | --- | --- | --- | --- | --- | --- | --- | --- | --- | --- | --- | --- |
| VP229 BREAST | 0.984 ± 0.1 | 1.02 ± 0.056 | 1.1 ± 0.12 | 1.04 ± 0.14 | 1.05 ± 0.096 | 1.09 ± 0.042 | 1.04 ± 0.086 | 0.86 ± 0.028 | 1.13 ± 0.11 | 1.07 ± 0.062 | 0.948 ± 0.046 | 0.844 ± 0.032 | 0.513 ± 0.078 | 0.383 ± 0.071 | 0.135 ± 0.02 | 0.0757 ± 0.018 |
| CADOES1 SOFT TISSUE | 0.789 ± 0.054 | 0.94 ± 0.018 | 0.867 ± 0.069 | 0.894 ± 0.031 | 0.814 ± 0.14 | 0.726 ± 0.056 | 0.294 ± 0.048 | 0.148 ± 0.015 | 0.956 ± 0.11 | 0.921 ± 0.061 | 0.911 ± 0.058 | 0.781 ± 0.045 | 0.633 ± 0.11 | 0.49 ± 0.025 | 0.193 ± 0.033 | 0.12 ± 0.0096 |
| ZR751 BREAST | 1.07 ± 0.13 | 1.07 ± 0.085 | 1.08 ± 0.17 | 0.991 ± 0.078 | 0.867 ± 0.13 | 0.909 ± 0.15 | 0.543 ± 0.082 | 0.587 ± 0.042 | 1.13 ± 0.17 | 1.04 ± 0.15 | 0.783 ± 0.13 | 0.708 ± 0.11 | 0.328 ± 0.039 | 0.182 ± 0.038 | 0.091 ± 0.013 | 0.0693 ± 0.012 |
| HCC1954 BREAST | 1.14 ± 0.11 | 1.24 ± 0.018 | 1.32 ± 0.023 | 1.11 ± 0.15 | 1.35 ± 0.051 | 1.04 ± 0.024 | 0.48 ± 0.072 | 0.242 ± 0.02 | 0.993 ± 0.024 | 0.945 ± 0.056 | 1.153 ± 0.0064 | 1.03 ± 0.044 | 0.487 ± 0.08 | 0.322 ± 0.047 | 0.0592 ± 0.0095 | 0.0478 ± 0.0011 |
| CAL120 BREAST | 0.928 ± 0.063 | 0.922 ± 0.076 | 0.965 ± 0.057 | 0.934 ± 0.047 | 0.957 ± 0.069 | 0.917 ± 0.03 | 0.9 ± 0.07 | 0.745 ± 0.027 | 0.942 ± 0.024 | 0.876 ± 0.034 | 0.9035 ± 0.0069 | 0.867 ± 0.025 | 0.674 ± 0.035 | 0.441 ± 0.019 | 0.113 ± 0.025 | 0.0817 ± 0.0065 |
| SG28 HEADNECK | 1.02 ± 0.033 | 1.15 ± 0.033 | 0.996 ± 0.05 | 1.09 ± 0.19 | 1.04 ± 0.069 | 1.22 ± 0.31 | 1.11 ± 0.018 | 0.959 ± 0.18 | 1.042 ± 0.0068 | 1.033 ± 0.0092 | 0.998 ± 0.1 | 0.899 ± 0.058 | 0.691 ± 0.036 | 0.621 ± 0.057 | 0.3 ± 0.0047 | 0.242 ± 0.005 |
| SG31 HEADNECK | 1.04 ± 0.091 | 1.08 ± 0.072 | 1.1 ± 0.28 | 1.07 ± 0.12 | 1.07 ± 0.16 | 1.07 ± 0.11 | 0.982 ± 0.14 | 0.967 ± 0.032 | 0.99 ± 0.13 | 0.942 ± 0.1 | 0.933 ± 0.08 | 0.766 ± 0.057 | 0.637 ± 0.036 | 0.463 ± 0.054 | 0.25 ± 0.014 | 0.162 ± 0.023 |
| OSHN BONE | 1.06 ± 0.015 | 1.08 ± 0.025 | 1.07 ± 0.015 | 1.068 ± 0.0038 | 1.13 ± 0.029 | 1.1 ± 0.019 | 0.709 ± 0.1 | 0.11 ± 0.019 | 1.03 ± 0.024 | 1.03 ± 0.035 | 1.02 ± 0.029 | 1.01 ± 0.03 | 1.1 ± 0.0058 | 1.03 ± 0.034 | 0.447 ± 0.016 | 0.267 ± 0.0045 |
| SCC36 HEADNECK | 1.05 ± 0.03 | 1.07 ± 0.038 | 0.991 ± 0.065 | 1.15 ± 0.055 | 1.07 ± 0.041 | 1.13 ± 0.042 | 0.427 ± 0.053 | 0.313 ± 0.017 | 1.11 ± 0.012 | 0.988 ± 0.031 | 0.914 ± 0.016 | 1.11 ± 0.056 | 0.807 ± 0.017 | 0.84 ± 0.086 | 0.167 ± 0.024 | 0.143 ± 0.024 |
